Measurements published in patent US11485714B2, “Hydroxyethylamine-based piperazine compounds, and methods of producing and using the same for treating disease” (National Institute of Immunology, priority 2020, dated 2022).
Read-outs that look alike come from different tables or passages of the source.

Experiments:
Assay type in all cases: cell-based
[1] = system: Field isolates from Kenya (P. falciparum infected blood); test: Screening against freshly collected field isolates; conditions: Plasmodium falciparum, read-out: Field isolates from Kenya IC50, nM (±SD)
[2] = system: P. falciparum CQ-sensitive (Pf3D7); test: SYBR Green I assay, asynchronous cultures, CQ-sensitive clone; conditions: Plasmodium falciparum, read-out: Pf3D7 IC50, nM (±SD)
Protocol: Initially, antimalarial activity of Compound I was assessed on asynchronous cultures of P. falciparum sensitive (Pf3D7) clone using the SYBR Green assay. […] DMSO was used as a vehicle control, CQ (Chloroquine), DOX (Doxycycline) and DHA (Dihydroartemisinin).

[3] = system: P. falciparum CQ-resistant (PfDd2); test: SYBR Green I assay, asynchronous cultures, CQ-resistant clone; conditions: Plasmodium falciparum, read-out: PfDd2 IC50, nM (±SD)
[4] = asynchronous cultures, 37° C., 72 hours, SYBR Green I

CCN(CC)CCCC(C)Nc1ccnc2cc(Cl)ccc12 (stereo not drawn) [Chloroquine, reference compound]
IC50 [1]: 75.2 nM
IC50 ([2]; 72 h): 32.3 nM
IC50 ([3]; 72 h): 137 nM

C[C@H]1[C@@H](O)O[C@@H]2O[C@@]3(C)CC[C@H]4[C@H](C)CC[C@@H]1[C@@]24OO3 [Dihydroartemisinin, reference compound]
IC50 ([1]; Table 1): 7.37 nM
IC50 [2, 4]: 27 nM
IC50 [3, 4]: 46 nM
